According to patent US20240216362A1, “BENZOTHIAZOLE AND QUINOLINE DERIVATIVES FOR USE IN TREATING KAWASAKI DISEASE” (Shanghai Yao Yuan Biotechnology Co., Ltd., priority 2021, published 2024):
Counter-ions that a name gives are not always drawn.

How the values were obtained:
[1] = system: ALPK1-dependent innate immunity gene expression; test: Inhibition of ALPK1 in coronary artery, aorta and heart muscle (innate immunity gene mRNA); format: in vivo, Sprague-Dawley (SD) rats; conditions: SD rats, 40 mpk oral, 2 h before ALPK1 agonist ip, tissue 3 h after agonist, compared with vehicle group
Description: To examine if ALPK1 inhibitors can suppress innate immunity genes activated upon ALPK1 activation, SD rats were orally administered compound T007 and gene expression of innate immunity genes was activated by intraperitoneal administration of the ALPK1 agonist, D-glycero-D-manno-6-fluoro-heptose-1β-S-ADP. The coronary artery, aorta and heart muscle tissues were examined for inhibition of ALPK1 inhibitors on innate immunity gene expression.
Twenty male Sprague-Dawley (SD) rats were randomly divided into four groups. A first control group (“normal”) was administered vehicle (0.5% MC) orally, followed 2 hours later with PBS administered by intraperitoneal injection (ip). A second control group (“vehicle”) was administered vehicle (0.5% MC) orally, followed 2 hours later by ip administration of the ALPK1 agonist, D-glycero-D-manno-6-fluoro-heptosc-1β-S-ADP (50 ppk). Treatment groups were administered ALPK1 inhibitors (40 mpk) orally, followed 2 hours later by ip administration of the ALPK1 agonist. The coronary artery, cardiac muscle and aorta from each group were collected 3 hours after administration of the ALPK1 agonist. RNA was isolated and samples were analyzed by RT-PCR for expression of MCP-1 (CCL-2), CCL-7, CXCL-1, CXCL-11, CXCL-10, IL-1β, CCL-5, TNF-α, and IL-6 mRNA. Briefly, total RNA was extracted following the protocol of the Rneasy Mini Kit (QIAGEN, Germany). Messenger RNA was reverse transcribed to cDNA using HiScript Q RT SuperMix for qPCR Kit (Vazyme, Nanjing, China). Quantitative PCR was conducted using AceQ qPCR SYBR Green Master Mix Kit (Vazyme, Nanjing, China) on the QuantStudio 5 applied biosystems (Thermo scientific, USA). Relative mRNA levels were calculated using the 2−ΔΔCT method, and HPRT was used as a reference for gene expression normalization. Data were presented as the gene fold change against their respective expression in the control arm.

[2] = system: ALPK1-dependent gene expression in PBMC; test: Inhibition of ALPK1 in PBMC cells (gene mRNA); format: in vivo, Sprague-Dawley (SD) rats; conditions: SD rats, 10 mpk oral, 2 h before ALPK1 agonist ip, blood 3 h after agonist, compared with vehicle group
Description: We examined whether ALPK1 inhibitors can suppress ALPK1-dependent activation of a set of such genes in rats. Animals were orally administered compound T007 and ALPK1-dependent gene expression was induced by intraperitoneal administration of the ALPK1 agonist, D-glycero-D-manno-6-fluoro-heptose-lo-S-ADP. PBMCs were collected and gene expression analyzed, as described in more detail below.
Thirty-six male Sprague-Dawley (SD) rats were randomly divided into six groups. A first control group (“normal”) was administered vehicle (0.5% MC) orally, followed 2 hours later with PBS administered by intraperitoneal injection (ip). A second control group (“vehicle”) was administered vehicle (0.5% MC) orally, followed 2 hours later by ip administration of the ALPK1 agonist, D-glycero-D-manno-6-fluoro-heptose-1β-S-ADP (50 ppk). Treatment groups were administered ALPK1 inhibitors (10 mpk) orally, followed 2 hours later by ip administration of the ALPK1 agonist. […] RNA was isolated and samples were analyzed by RT-PCR for gene expression. […] Quantitative PCR was conducted using AceQ qPCR SYBR Green Master Mix Kit (Vazvme, Nanjing, China) on the QuantStudio 5 applied biosystems (Thermo scientific, USA). Relative mRNA levels were calculated using the 2−ΔΔCT method, and HPRT was used as a reference for gene expression normalization. […]

[3] = target: hALPK1-V1092A (transiently transfected HEK293 cells) (Homo sapiens (Human), UniProt Q96QP1, V1092A); test: Inhibition of IL-8 secretion in cells expressing V1092A ALPK1 mutant; format: cell-based; conditions: 24 hours, relative to wild-type HEK293 cells
Sequence of hALPK1-V1092A (transiently transfected HEK293 cells) (Q96QP1 whole entry V1092A): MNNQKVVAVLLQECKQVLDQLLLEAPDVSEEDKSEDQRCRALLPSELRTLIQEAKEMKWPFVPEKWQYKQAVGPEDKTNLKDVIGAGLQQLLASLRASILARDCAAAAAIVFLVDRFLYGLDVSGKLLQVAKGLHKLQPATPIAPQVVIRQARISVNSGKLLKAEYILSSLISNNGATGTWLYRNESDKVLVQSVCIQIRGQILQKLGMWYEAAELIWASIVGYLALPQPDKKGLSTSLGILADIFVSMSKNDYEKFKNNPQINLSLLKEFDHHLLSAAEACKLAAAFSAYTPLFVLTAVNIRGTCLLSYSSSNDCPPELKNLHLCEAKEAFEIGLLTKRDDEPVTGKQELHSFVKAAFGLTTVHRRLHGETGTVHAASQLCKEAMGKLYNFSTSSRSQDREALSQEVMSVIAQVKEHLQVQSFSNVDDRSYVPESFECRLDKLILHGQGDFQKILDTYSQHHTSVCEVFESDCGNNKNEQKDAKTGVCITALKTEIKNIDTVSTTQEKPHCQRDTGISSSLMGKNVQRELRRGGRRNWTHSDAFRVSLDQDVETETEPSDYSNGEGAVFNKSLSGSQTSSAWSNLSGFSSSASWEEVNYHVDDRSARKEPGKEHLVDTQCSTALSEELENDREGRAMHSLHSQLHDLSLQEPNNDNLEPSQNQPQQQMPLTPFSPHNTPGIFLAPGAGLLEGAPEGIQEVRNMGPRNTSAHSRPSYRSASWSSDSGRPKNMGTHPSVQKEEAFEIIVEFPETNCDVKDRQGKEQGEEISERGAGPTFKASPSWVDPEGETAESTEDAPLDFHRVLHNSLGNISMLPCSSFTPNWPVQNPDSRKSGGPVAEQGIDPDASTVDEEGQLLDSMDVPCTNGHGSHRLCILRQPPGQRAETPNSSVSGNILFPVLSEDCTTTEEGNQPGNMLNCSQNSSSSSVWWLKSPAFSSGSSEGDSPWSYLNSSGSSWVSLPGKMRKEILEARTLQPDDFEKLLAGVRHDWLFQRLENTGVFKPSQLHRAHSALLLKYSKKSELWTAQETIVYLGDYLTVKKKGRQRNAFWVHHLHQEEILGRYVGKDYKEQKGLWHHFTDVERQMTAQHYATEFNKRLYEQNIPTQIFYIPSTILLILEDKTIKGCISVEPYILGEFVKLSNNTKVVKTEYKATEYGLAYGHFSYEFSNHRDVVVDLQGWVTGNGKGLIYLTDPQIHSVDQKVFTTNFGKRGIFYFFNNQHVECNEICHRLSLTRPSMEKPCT
Procedure: (§1) HEK293 cells were cultured as described above prior to transient transfection with either empty vector or an expression vector encoding (i) human ALPK1 (hALPK1), (ii) hALPK1 with the T237M activating mutation (hALPK1-T237M) (iii) hALPK1 with the V1092A activating mutation (hALPK1-V1092A), or (iv) a kinase dead ALPK1 mutant (hALPK1-T237M-D1194S). Transfection was performed according to manufacturer's protocols (Lipofectamine™ 3000, ThermoFisher). Transfected cells were selected, seeded onto 96-well plates and treated with serial dilutions of the test compounds for 6.5 hr. Following treatment, cell viability was determined using a luminescent cell viability assay (Cell Counting-Lite Assay or “CCL Assay” from Vazyme Biotech Co., Ltd.) and cell free supernatants were collected and analyzed for IL-8 protein by IL-8 ELISA as described above. […] As shown in the figure, very little IL-8 was detectable in cells transfected with any of the empty vector, hALPK1, or the kinase dead hALPK1 mutant. In contrast, both of the activating mutations in hALPK1 induced significant IL-8 secretion.
For the V1092A mutant study shown in Table 4, HEK293 cells were transiently transfected with hALPK1-V1092A or hALPK1 (wildtype) expression vectors and then treated with test compounds for 24 hours. Fresh medium and compound were added at 18 hours. Cell viability and IL-8 secretion were determined 6 hours after the second addition of compound, using the CCL assay and IL-8 ELISA as described above.

[4] = target: T237M hALPK1 mutant (HEK293 A2 cells) (Homo sapiens (Human), UniProt Q96QP1, T237M); test: Inhibition of IL-8 secretion in cells expressing T237M ALPK1 mutant; format: cell-based; conditions: 40 hours, relative to wild-type HEK293 cells
Sequence of T237M hALPK1 mutant (HEK293 A2 cells) (Q96QP1 whole entry T237M): as the sequence (Q96QP1 whole entry V1092A) above, with T237M, A1092V counted along it
Procedure: as §1
Next, we tested a representative set of compounds for inhibition of IL-8 secretion in cells expressing each of the activating ALPK1 mutants. T237M and V1092A. […] For the T237M mutant study, we produced an HEK293 cell line (“A2”) stably expressing the T237M hALPK1 mutant. A2 cells were cultured in the presence of test compound (6 uM) for 40 hours total. Fresh medium and compound were added at 24 hours. Cell viability and IL-8 secretion were determined 16 hours after the second addition of compound, using the CCL assay and IL-8 ELISA as described above.

[5] = system: IL1β mRNA induced by ALPK1 activation in THP-1-derived macrophages; test: PMA-differentiated THP-1 cell based assay (IL1β mRNA); conditions: Homo sapiens; PMA-differentiated THP-1 cells, ALPK1 agonist stimulation 4 h; read-out: IC50 for inhibition of IL1β mRNA
Procedure: Peripheral blood mononuclear cells (PBMCs) from Kawasaki patients show activation of ALPK1-TIFA-IL10μ pathway. We evaluated the ability of ALPK1 inhibitors to suppress IL1β levels following ALPK1 activation in THP-1-derived macrophage cells in which the ALPK1-TIFA-IL1P pathway is activated by an ALPK1 agonist, D-glycero-D-manno-6-fluoro-heptose-1β-S-A DP.
THP-1 cells were cultured in RPMI 1640 containing 10% heat inactivated FBS, penicillin (100 units/ml) and streptomycin (100 μg/ml), and maintained in a humidified incubator with 95% atmospheric air and 5% CO2. Prior to the experiment, THP-1 cells were seeded into 24-well flat-bottom plate at a cell density of […]. Phorbol myristate acetate (PMA; 50 ng/ml) was used to treat THP-1 cells for 48 h, and then THP-1-derived macrophages were obtained. Following treatment THP-1 cells were pretreated with serially diluted compounds for 2 hours and then stimulated with D-glycero-D-manno-6-fluoro-heptose-1β-S-ADP for 4 h. […] The mRNA expression levels IL1β were detected by SYBR green gene expression assays. […] Relative expression was calculated by comparing to vehicle control and the values were plotted as fold induction. All activity results were expressed as the mean of triplicate determinations. IC50 was determined from dose response curve using Prism Software, version 6.00 from GraphPad Software.

[6] = target: ALPK1 (Homo sapiens (Human), UniProt Q96QP1); test: ALPK1 in vitro kinase assay (HTRF, TIFA phosphorylation); format: biochemical; conditions: ADP-Heptose activated ALPK1, TIFA substrate
Sequence of ALPK1 (Q96QP1 whole entry): as the sequence (Q96QP1 whole entry V1092A) above, with A1092V counted along it
Procedure: ALPK1 kinase activity was measured in an in vitro assay using ADP-Heptose as the ALPK1 ligand and activator of its kinase activity and TIFA protein as the ALPK1 phosphorylation substrate. Since phosphorylated TIFA proteins oligomerize, Homogeneous Time-Resolved Fluorescence (HTRF) was used to measure protein:protein interaction between HA-tagged TIFA proteins as an indicator of TIFA phosphorylation.
In brief, dose-response studies were performed with HEK293 cells cultured in Dulbecco's Modified Eagle Medium (DMEM) supplemented 10% fetal bovine serum (FBS, Hyclone™) containing antibiotics (pen/strep, G418) in 384-well assay plates. Each well contained 0.1 mg TIFA, ALPK1 (2 nM final concentration in reaction mixture) and kinase buffer (100 mM of HEPES pH 7.4, 4 mM DTT, 40 mM MgCl2, 20 mM of β-Glycerol phosphate disodium salt, 0.4 mM of Na3VO4, 0.16 mg/mL). […]
For HTRF, samples were incubated with a Tb cryptate-labeled anti-HA antibody for capturing HA-tagged proteins according to the manufacturer's instructions (PerkinElmer™, CisBio™) and the fluorescence signal was quantified (Tecan Infinite F NANO+). HTRF signals were calculated as the HTRF ratio (ratio of fluorescence measured at 665 nm and 620 nm)×104 (thereby using the signal at 620 nm as an internal standard).
IC50 values were determined using 3- or 4-parameter logistic equation using GraphPad Prism version 6.00. […]

SMILES	inhibition at 6 µM [3] [%]	inhibition at 6 µM [4] [%]	further results
C#Cc1cccc2sc(NC(=O)c3c(F)cc(N4CCNCC4)cc3F)nc12 [Compound T007, N-(4-ethynylbenzo[d]thiazol-2-yl)-2,6-difluoro-4-(piperazin-1-yl)benzamide]	95	91	mRNA expression of aorta IL-6, CXCL-1, CXCL-10, CCL-2 [1]: significantly decreased; mRNA expression of cardiac muscle TNF-α, IL-1b, IL-6, CXCL-1, CXCL-10, CXCL-11, CCL-2 and CCL-5 [1]: significantly decreased; mRNA expression of coronary artery TNF-α, CXCL-1, CCL-2 and CCL-7 [1]: significantly decreased; mRNA expression of PBMC CXCL-1 [2]: significantly decreased; IC50 [5]: 21 nM
COc1cccc2ccc(NC(=O)c3c(F)cc(N4CCNCC4)cc3F)nc12 [Compound Q001, 2,6-difluoro-N-(8-methoxyquinolin-2-yl)-4-(piperazin-1-yl)benzamide]	68	69	–
O=C(Nc1nc2c(F)cc(F)cc2s1)c1c(F)cc(N2CCNCC2)cc1F [Compound T035, N-(4,6-difluorobenzo[d]thiazol-2-yl)-2,6-difluoro-4-(piperazin-1-yl)benzamide]	–	–	IC50 [6]: 1340 nM
C#Cc1cccc2sc(NC(=O)c3c(Cl)cc(N4CCNCC4)cc3Cl)nc12 [Compound T048, 2,6-dichloro-N-(4-ethynylbenzo[d]thiazol-2-yl)-4-(piperazin-1-yl)benzamide]	–	66	–
C#Cc1cccc2sc(NC(=O)c3c(C)cc(N4CCNCC4)cc3F)nc12 [Compound T050, N-(4-ethynylbenzo[d]thiazol-2-yl)-2-fluoro-6-methyl-4-(piperazin-1-yl)benzamide]	–	–	IC50 [6]: 15 nM
COc1cccc2sc(NC(=O)c3c(F)cc(N4CCNCC4)cc3F)nc12 [Compound T017, 2,6-difluoro-N-(4-methoxybenzo[d]thiazol-2-yl)-4-(piperazin-1-yl)benzamide hydrochloride]	50	–	–
COc1cccc2ccc(NC(=O)c3c(F)ccc(N4CCNCC4)c3F)nc12 [Compound Q005, 2,6-difluoro-N-(8-methoxyquinolin-2-yl)-3-(piperazin-1-yl)benzamide]	52	–	–
